# Test results reported in patent US20240140957A1, “BRIDGED COMPOUNDS AS KRAS G12D INHIBITOR AND DEGRADER AND THE USE THEREOF” (BeiGene Switzerland GmbH, priority 2021, published 2024).
# Biological target: GDP-loaded KRAS G12D (Homo sapiens, UniProt P01116, G12D)
# Assay: KRAS G12D Probe Displacement Assay
# Format: binding
# Settings: KRAS G12D 0.5 nM, biotinylated probe 2 4 nM; Table 6 letters; read-out: KRAS G12D Probe Displacement Assay IC50 (class)
# Chain of GDP-loaded KRAS G12D (P01116 1-188 isoform P01116-2 G12D): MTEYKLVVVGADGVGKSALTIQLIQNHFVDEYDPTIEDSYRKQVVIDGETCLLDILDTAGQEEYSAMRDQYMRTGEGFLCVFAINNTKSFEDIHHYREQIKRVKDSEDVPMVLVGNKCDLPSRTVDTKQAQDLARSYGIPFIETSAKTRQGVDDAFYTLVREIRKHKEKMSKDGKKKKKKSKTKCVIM
row,IC50,SMILES
1,< 50 nM,"N#CC1(COc2nc(N3CC4CCC(C3)N4)c3cc(C(F)(F)F)c(-c4ccc(F)c5sc(N)nc45)c(F)c3n2)CCOC1 (stereo not shown) [Example E211, 3-(((7-(2-amino-7-fluorobenzo[d]thiazol-4-yl)-4-(3,8-diazabicyclo [3.2.1]octan-3-yl)-8-fluoro-6-(trifluoromethyl)quinazolin-2-yl)oxy)methyl)tetrahydrofuran-3-carbonitrile]"
2,< 50 nM,"CC1(COc2nc(N3CC4CCC(C3)N4)c3cc(C(F)(F)F)c(-c4ccc(F)c5sc(N)nc45)c(F)c3n2)CCC(=O)N1 (stereo not shown) [Example E212, 5-(((7-(2-amino-7-fluorobenzo[d]thiazol-4-yl)-4-(3,8-diazabicyclo[3.2.1]octan-3-yl)-8-fluoro-6-(trifluoromethyl)quinazolin-2-yl)oxy)methyl)-5-methylpyrrolidin-2-one]"
3,< 50 nM,"N#CC1(COc2nc(N3CC4CCC(C3)N4)c3cc(C(F)(F)F)c(-c4ccc(F)c5sc(N)nc45)c(F)c3n2)CCC1 [Example E214, 1-(((7-(2-amino-7-fluorobenzo[d]thiazol-4-yl)-4-(3,8-diazabicyclo [3.2.1]octan-3-yl)-8-fluoro-6-(trifluoromethyl)quinazolin-2-yl)oxy)methyl)cyclobutane-1-carbonitrile]"
4,< 50 nM,"CC1(COc2nc(N3CC4CCC(C3)N4)c3cc(C(F)(F)F)c(-c4ccc(F)c5sc(N)nc45)c(F)c3n2)COCCO1 (stereo not shown) [Example E215, 4-(4-(3,8-diazabicyclo[3.2.1]octan-3-yl)-8-fluoro-2-((2-methyl-1,4-dioxan-2-yl)methoxy)-6-(trifluoromethyl)quinazolin-7-yl)-7-fluorobenzo[d]thiazol-2-amine]"
5,< 50 nM,"Nc1nc2c(-c3c(C(F)(F)F)cc4c(N5CC6CCC(C5)N6)nc(OCC5CCCOC5)nc4c3F)ccc(F)c2s1 (stereo not shown) [Example E216, 4-(4-(3,8-diazabicyclo[3.2.1]octan-3-yl)-8-fluoro-2-((tetrahydro-2H-pyran-3-yl)methoxy)-6-(trifluoromethyl)quinazolin-7-yl)-7-fluorobenzo[d]thiazol-2-amine]"
6,< 50 nM,"Nc1nc2c(-c3c(C(F)(F)F)cc4c(N5CC6CCC(C5)N6)nc(OCC56COCC5C6)nc4c3F)ccc(F)c2s1 (stereo not shown) [Example E217, 4-(2-((3-oxabicyclo[3.1.0]hexan-1-yl)methoxy)-4-(3,8-diazabicyclo[3.2.1]octan-3-yl)-8-fluoro-6-(trifluoromethyl)quinazolin-7-yl)-7-fluorobenzo[d]thiazol-2-amine]"
7,< 50 nM,"Nc1nc2c(-c3c(C(F)(F)F)cc4c(N5CC6CCC(C5)N6)nc(OCC5(F)CCOCC5)nc4c3F)ccc(F)c2s1 [Example E218, 4-(4-(3,8-diazabicyclo[3.2.1]octan-3-yl)-8-fluoro-2-((4-fluorotetra hydro-2H-pyran-4-yl)methoxy)-6-(trifluoromethyl)quinazolin-7-yl)-7-fluorobenzo[d]thiazol-2-amine]"
8,< 50 nM,"Nc1nc2c(-c3c(C(F)(F)F)cc4c(N5CC6CCC(C5)N6)nc(OC[C@@H]5COCCO5)nc4c3F)ccc(F)c2s1 [Example E219, 4-(2-(((S)-1,4-dioxan-2-yl)methoxy)-4-(3,8-diazabicyclo[3.2.1]octan-3-yl)-8-fluoro-6-(trifluoromethyl)quinazolin-7-yl)-7-fluorobenzo[d]thiazol-2-amine]"
9,< 50 nM,"Nc1nc2c(-c3c(C(F)(F)F)cc4c(N5CC6CCC(C5)N6)nc(OCC5(O)CCOCC5)nc4c3F)ccc(F)c2s1 [Example E221, 4-(((7-(2-amino-7-fluorobenzo[d]thiazol-4-yl)-4-(3,8-diazabicyclo [3.2.1]octan-3-yl)-8-fluoro-6-(trifluoromethyl)quinazolin-2-yl)oxy)methyl)tetrahydro-2H-pyran-4-ol]"
10,< 50 nM,"Nc1nc2c(-c3c(C(F)(F)F)cc4c(N5CC6CCC(C5)N6)nc(OCC56CC(O)(C5)C6)nc4c3F)ccc(F)c2s1 [Example E222, 3-(((7-(2-amino-7-fluorobenzo[d]thiazol-4-yl)-4-(3,8-diazabicyclo [3.2.1]octan-3-yl)-8-fluoro-6-(trifluoromethyl)quinazolin-2-yl)oxy)methyl)bicyclo[1.1.1]pentan-1-ol]"

# More lines, now with the values behind:
row,SMILES,IC50
1,"Cc1cc(N)nc(-c2c(Cl)cc3c(N4CC5CCC(C4)N5)nc(OCC4(C#N)CCCC4)nc3c2F)c1C(F)(F)F [Example E199, 1-(((7-(6-amino-4-methyl-3-(trifluoromethyl)pyridin-2-yl)-4-(3,8-diazabicyclo[3.2.1]octan-3-yl)-6-chloro-8-fluoroquinazolin-2-yl)oxy)methyl)cyclopentane-1-carbonitrile]",50 to 100 nM
2,"Cc1cc(N)nc(-c2c(Cl)cc3c(N4CC5CCC(C4)N5)nc(OCC4(CO)CCC4)nc3c2F)c1C(F)(F)F [Example E200, (1-(((7-(6-amino-4-methyl-3-(trifluoromethyl)pyridin-2-yl)-4-(3,8-diazabicyclo[3.2.1]octan-3-yl)-6-chloro-8-fluoroquinazolin-2-yl)oxy)methyl)cyclobutyl) methanol]",< 50 nM
3,"Cc1cc(N)nc(-c2c(Cl)cc3c(N4CC5CCC(C4)N5)nc(OCC4(C)CCCOC4)nc3c2F)c1C(F)(F)F (stereo not shown) [Example E201, 6-(4-(3,8-diazabicyclo[3.2.1]octan-3-yl)-6-chloro-8-fluoro-2-((3-methyltetrahydro-2H-pyran-3-yl)methoxy)quinazolin-7-yl)-4-methyl-5-(trifluoromethyl)pyridin-2-amine]",100 to 1000 nM
4,"Cc1cc(N)nc(-c2c(Cl)cc3c(N4CC5CCC(C4)N5)nc(OCC4(C)CCOCC4)nc3c2F)c1C(F)(F)F [Example E202, 6-(4-(3,8-diazabicyclo[3.2.1]octan-3-yl)-6-chloro-8-fluoro-2-((4-methyltetrahydro-2H-pyran-4-yl)methoxy)quinazolin-7-yl)-4-methyl-5-(trifluoromethyl)pyridin-2-amine]",50 to 100 nM
5,"Cc1cc(N)nc(-c2c(Cl)cc3c(N4CC5CCC(C4)N5)nc(OCC4(C)CCOC4)nc3c2F)c1C(F)(F)F (stereo not shown) [Example E203, 6-(4-(3,8-diazabicyclo[3.2.1]octan-3-yl)-6-chloro-8-fluoro-2-((3-methyltetrahydrofuran-3-yl)methoxy)quinazolin-7-yl)-4-methyl-5-(trifluoromethyl)pyridin-2-amine]",50 to 100 nM
6,"COCC(C#N)(CO)COc1nc(N2CC3CCC(C2)N3)c2cc(Cl)c(-c3nc(N)cc(C)c3C(F)(F)F)c(F)c2n1 (stereo not shown) [Example E204, 3-((7-(6-amino-4-methyl-3-(trifluoromethyl)pyridin-2-yl)-4-(3,8-diazabicyclo [3.2.1]octan-3-yl)-6-chloro-8-fluoroquinazolin-2-yl)oxy)-2-(hydroxymethyl)-2-(methoxymethyl)propanenitrile]",< 50 nM
7,"Cc1cc(N)nc(-c2c(Cl)cc3c(N4CC5CCC(C4)N5)nc(OCC(C#N)(CO)CO)nc3c2F)c1C(F)(F)F [Example E205, 3-((7-(6-amino-4-methyl-3-(trifluoromethyl)pyridin-2-yl)-4-(3,8-diazabicyclo [3.2.1]octan-3-yl)-6-chloro-8-fluoroquinazolin-2-yl)oxy)-2,2-bis(hydroxymethyl) propanenitrile]",< 50 nM
8,"Cc1cc(N)nc(-c2c(Cl)cc3c(N4CC5CCC(C4)N5)nc(OCC4(C#N)CCOC4)nc3c2F)c1C(F)(F)F (stereo not shown) [Example E206, 3-(((7-(6-amino-4-methyl-3-(trifluoromethyl)pyridin-2-yl)-4-(3,8-diazabicyclo[3.2.1]octan-3-yl)-6-chloro-8-fluoroquinazolin-2-yl)oxy)methyl)tetrahydrofuran-3-carbonitrile]",< 50 nM
9,"Cc1cc(N)nc(-c2c(Cl)cc3c(N4CC5CCC(C4)N5)nc(OCC4(C)CCC(=O)N4)nc3c2F)c1C(F)(F)F (stereo not shown) [Example E207, 5-(((7-(6-amino-4-methyl-3-(trifluoromethyl)pyridin-2-yl)-4-(3,8-diazabicyclo[3.2.1]octan-3-yl)-6-chloro-8-fluoroquinazolin-2-yl)oxy)methyl)-5-methylpyrrolidin-2-one]",< 50 nM
10,"Cc1cc(N)nc(-c2c(Cl)cc3c(N4CC5CCC(C4)N5)nc(OCC4(C)CNC(=O)C4)nc3c2F)c1C(F)(F)F (stereo not shown) [Example E208, 4-(((7-(6-amino-4-methyl-3-(trifluoromethyl)pyridin-2-yl)-4-(3,8-diazabicyclo[3.2.1]octan-3-yl)-6-chloro-8-fluoroquinazolin-2-yl)oxy)methyl)-4-methylpyrrolidin-2-one]",< 50 nM
11,"Nc1nc2c(-c3c(C(F)(F)F)cc4c(N5CC6CCC(C5)N6)nc(OCC5COCC5O)nc4c3F)ccc(F)c2s1 (stereo not shown) [Example E209, 4-(((7-(2-amino-7-fluorobenzo[d]thiazol-4-yl)-4-(3,8-diazabicyclo [3.2.1]octan-3-yl)-8-fluoro-6-(trifluoromethyl)quinazolin-2-yl)oxy)methyl)tetrahydrofuran-3-ol]",< 50 nM
12,"Nc1nc2c(-c3c(C(F)(F)F)cc4c(N5CC6CCC(C5)N6)nc(OCC5C6COCC65)nc4c3F)ccc(F)c2s1 (stereo not shown) [Example E210, 4-(2-((3-oxabicyclo[3.1.0]hexan-6-yl)methoxy)-4-(3,8-diazabicyclo[3.2.1]octan-3-yl)-8-fluoro-6-(trifluoromethyl)quinazolin-7-yl)-7-fluorobenzo[d]thiazol-2-amine]",< 50 nM
13,"Nc1nc2c(-c3c(C(F)(F)F)cc4c(N5CC6CCC(C5)N6)nc(OCC5CCCCC5O)nc4c3F)ccc(F)c2s1 (stereo not shown) [Example E213, 2-(((7-(2-amino-7-fluorobenzo[d]thiazol-4-yl)-4-(3,8-diazabicyclo[3.2.1]octan-3-yl)-8-fluoro-6-(trifluoromethyl)quinazolin-2-yl)oxy)methyl)cyclohexan-1-ol]",< 50 nM
14,Nc1nc2c(-c3c(C(F)(F)F)cc4c(N5CC6CCC(C5)N6)nc(OCC5CCCC5O)nc4c3F)ccc(F)c2s1 (stereo not shown) [Example E220],50 to 100 nM
15,"CC(=O)N1CCCC(COc2nc(N3CC4CCC(C3)N4)c3cc(C(F)(F)F)c(-c4ccc(F)c5sc(N)nc45)c(F)c3n2)C1 (stereo not shown) [Example E223, 1-(3-(((7-(2-amino-7-fluorobenzo[d]thiazol-4-yl)-4-(3,8-diazabicyclo[3.2.1]octan-3-yl)-8-fluoro-6-(trifluoromethyl)quinazolin-2-yl)oxy)methyl)piperidin-1-yl)ethan-1-one]",< 50 nM
